From ChEMBL document CHEMBL4190365, “Synthesis and antiproliferative properties of new hydrophilic esters of triterpenic acids” (Eur J Med Chem, 2017)

Legend:
Format in all cases: functional, cell-based
G-361 = assay: Cytotoxicity in human G361 cells assessed as reduction in cell viability incubated for 72 hrs by calcein AM cytotoxicity assay; details: Homo sapiens, G-361, 72 h
HeLa = assay: Cytotoxicity in human HeLa cells assessed as reduction in cell viability incubated for 72 hrs by calcein AM cytotoxicity assay; details: Homo sapiens, HeLa, 72 h
MCF7 = assay: Cytotoxicity in human MCF7 cells assessed as reduction in cell viability incubated for 72 hrs by calcein AM cytotoxicity assay; details: Homo sapiens, MCF7, 72 h
BJ = assay: Cytotoxicity in human BJ cells assessed as reduction in cell viability incubated for 72 hrs by calcein AM cytotoxicity assay; details: Homo sapiens, BJ, 72 h
CCRF-CEM = assay: Cytotoxicity in human CEM cells assessed as reduction in cell viability incubated for 72 hrs by calcein AM cytotoxicity assay

CC(=O)OC[C@@]1(C(=O)OCC(=O)OCc2ccccc2)CC[C@]2(C)[C@H](CC[C@@H]3[C@@]4(C)CC[C@H](OC(C)=O)C(C)(C)[C@@H]4CC[C@]32C)C1=O
IC50 (G-361): > 50 µM | IC50 (HeLa): > 50 µM | IC50 (MCF7): > 50 µM | IC50 (BJ): > 50 µM | IC50 (CCRF-CEM; Homo sapiens, CCRF-CEM, 72 h): > 50 µM

CC(=O)O[C@H]1CC[C@]2(C)[C@H]3CC[C@@H]4C5=C(C(C)C)C(=O)C[C@]5(C(=O)OCC(=O)O)CC[C@@]4(C)[C@]3(C)CC[C@H]2C1(C)C
IC50 (G-361): 45.6 µM | IC50 (HeLa): 47.9 µM | IC50 (MCF7): > 50 µM | IC50 (BJ): > 50 µM | IC50 (CCRF-CEM; Homo sapiens, CCRF-CEM, 72 h): 24.2 µM

C=C(C)[C@@H]1CC[C@]2(C(=O)OCCN3CCCCC3)CC[C@]3(C)[C@H](CC[C@@H]4[C@@]5(C)CC[C@H](O)C(C)(C)[C@@H]5CC[C@]43C)[C@@H]12
IC50 (G-361): 28.6 µM | IC50 (HeLa): 23.8 µM | IC50 (MCF7): 32.8 µM | IC50 (BJ): 43.2 µM | IC50 (CCRF-CEM; ccrf-cem): 26.2 µM

CC(=O)O[C@H]1CC[C@]2(C)[C@H]3CC[C@@H]4C5=C(C(C)C)C(=O)C[C@]5(C(=O)OCCN5CCCC5)CC[C@@]4(C)[C@]3(C)CC[C@H]2C1(C)C
IC50 (G-361): 6.5 µM | IC50 (HeLa): 7.7 µM | IC50 (MCF7): 7.3 µM | IC50 (BJ): 19.1 µM | IC50 (CCRF-CEM; Homo sapiens, CCRF-CEM, 72 h): 13.3 µM

C=C(C)[C@@H]1CC[C@]2(C(=O)OCC(=O)O)CC[C@]3(C)[C@H](CC[C@@H]4[C@@]5(C)CC[C@H](O)C(C)(C)[C@@H]5CC[C@]43C)[C@@H]12
IC50 (G-361): > 50 µM | IC50 (HeLa): > 50 µM | IC50 (MCF7): > 50 µM | IC50 (BJ): > 50 µM | IC50 (CCRF-CEM; Homo sapiens, CCRF-CEM, 72 h): > 50 µM

CC(=O)OC[C@H]1O[C@@H](OC(=O)[C@]23CC[C@@H](C(C)C)[C@@H]2[C@H]2CC[C@@H]4[C@@]5(C)CC[C@H](O)C(C)(C)[C@@H]5CC[C@@]4(C)[C@]2(C)CC3)[C@H](OC(C)=O)[C@@H](OC(C)=O)[C@H]1OC(C)=O
IC50 (G-361): 4.7 µM | IC50 (HeLa): 5.1 µM | IC50 (MCF7): 2.8 µM | IC50 (BJ): > 50 µM | IC50 (CCRF-CEM; Homo sapiens, CCRF-CEM, 72 h): 8.6 µM

C=C(C)[C@@H]1CC[C@]2(C(=O)OCCN3CCCC3)CC[C@]3(C)[C@H](CC[C@@H]4[C@@]5(C)CC[C@H](O)C(C)(C)[C@@H]5CC[C@]43C)[C@@H]12
IC50 (G-361): 11.6 µM | IC50 (HeLa): 8.5 µM | IC50 (MCF7): 19.9 µM | IC50 (BJ): 23.1 µM | IC50 (CCRF-CEM; ccrf-cem): 5 µM

CC(=O)OC[C@@]1(C(=O)OCCN2CCCC2)CC[C@]2(C)[C@H](CC[C@@H]3[C@@]4(C)CC[C@H](OC(C)=O)C(C)(C)[C@@H]4CC[C@]32C)[C@@H]1O
IC50 (G-361): 7.4 µM | IC50 (HeLa): 10.6 µM | IC50 (MCF7): 10 µM | IC50 (BJ): 14.1 µM | IC50 (CCRF-CEM; Homo sapiens, CCRF-CEM, 72 h): 8.3 µM

C=C(C)[C@@H]1CC[C@]2(C(=O)O[C@@H]3O[C@H](CO)[C@@H](O)[C@H](O)[C@H]3O)CC[C@]3(C)[C@H](CC[C@@H]4[C@@]5(C)CC[C@H](O)C(C)(C)[C@@H]5CC[C@]43C)[C@@H]12
IC50 (G-361): > 50 µM | IC50 (HeLa): > 50 µM | IC50 (MCF7): > 50 µM | IC50 (BJ): > 50 µM | IC50 (CCRF-CEM; Homo sapiens, CCRF-CEM, 72 h): > 50 µM

CC(C)[C@@H]1CC[C@]2(C(=O)OCCN3CCCC3)CC[C@]3(C)[C@H](CC[C@@H]4[C@@]5(C)CC[C@H](O)C(C)(C)[C@@H]5CC[C@]43C)[C@@H]12
IC50 (G-361): 8.2 µM | IC50 (HeLa): 7.7 µM | IC50 (MCF7): 10.3 µM | IC50 (BJ): 17 µM | IC50 (CCRF-CEM; Homo sapiens, CCRF-CEM, 72 h): 2.8 µM

COCCOCCOC(=O)[C@@]12CC[C@]3(C)[C@H](CC[C@@H]4[C@@]5(C)CC[C@H](OC(C)=O)C(C)(C)[C@@H]5CC[C@]43C)C1=C(C(C)C)C(=O)C2
IC50 (G-361): 11.8 µM | IC50 (HeLa): 17.1 µM | IC50 (MCF7): 21.9 µM | IC50 (BJ): > 50 µM | IC50 (CCRF-CEM; Homo sapiens, CCRF-CEM, 72 h): 17.6 µM

CC(=O)O[C@H]1CC[C@]2(C)[C@H]3CC[C@@H]4C5=C(C(C)C)C(=O)C[C@]5(C(=O)OCCN5CCOCC5)CC[C@@]4(C)[C@]3(C)CC[C@H]2C1(C)C
IC50 (G-361): 7 µM | IC50 (HeLa): 16.1 µM | IC50 (MCF7): 14.5 µM | IC50 (BJ): 42.5 µM | IC50 (CCRF-CEM; Homo sapiens, CCRF-CEM, 72 h): 12.6 µM

COCCOC(=O)[C@]1(COC(C)=O)CC[C@]2(C)[C@H](CC[C@@H]3[C@@]4(C)CC[C@H](OC(C)=O)C(C)(C)[C@@H]4CC[C@]32C)C1=O
IC50 (G-361): > 50 µM | IC50 (HeLa): > 50 µM | IC50 (MCF7): > 50 µM | IC50 (BJ): > 50 µM | IC50 (CCRF-CEM; Homo sapiens, CCRF-CEM, 72 h): > 50 µM

CC(C)[C@@H]1CC[C@]2(C(=O)OCC(=O)OCc3ccccc3)CC[C@]3(C)[C@H](CC[C@@H]4[C@@]5(C)CC[C@H](O)C(C)(C)[C@@H]5CC[C@]43C)[C@@H]12
IC50 (G-361): > 50 µM | IC50 (HeLa): > 50 µM | IC50 (MCF7): > 50 µM | IC50 (BJ): > 50 µM | IC50 (CCRF-CEM; Homo sapiens, CCRF-CEM, 72 h): 24.1 µM

CC(=O)OC[C@@]1(C(=O)OCCN2CCCC2)CC[C@]2(C)[C@H](CC[C@@H]3[C@@]4(C)CC[C@H](OC(C)=O)C(C)(C)[C@@H]4CC[C@]32C)C1=O
IC50 (G-361): 20.3 µM | IC50 (HeLa): > 50 µM | IC50 (MCF7): > 50 µM | IC50 (BJ): > 50 µM | IC50 (CCRF-CEM; Homo sapiens, CCRF-CEM, 72 h): 25.8 µM

C=C(C)[C@@H]1CC[C@]2(C(=O)OCCOCCOC)CC[C@]3(C)[C@H](CC[C@@H]4[C@@]5(C)CC[C@H](O)C(C)(C)[C@@H]5CC[C@]43C)[C@@H]12
IC50 (G-361): 26.9 µM | IC50 (HeLa): 14.5 µM | IC50 (MCF7): 36.4 µM | IC50 (BJ): > 50 µM | IC50 (CCRF-CEM; Homo sapiens, CCRF-CEM, 72 h): 30.7 µM

CC(=O)OC[C@H]1O[C@@H](OC(=O)[C@@]23CC[C@]4(C)[C@H](CC[C@@H]5[C@@]6(C)CC[C@H](OC(C)=O)C(C)(C)[C@@H]6CC[C@]54C)C2=C(C(C)C)C(=O)C3)[C@H](OC(C)=O)[C@@H](OC(C)=O)[C@H]1OC(C)=O
IC50 (G-361): 3.1 µM | IC50 (HeLa): 44.3 µM | IC50 (MCF7): 3.7 µM | IC50 (BJ): 31.8 µM | IC50 (CCRF-CEM; Homo sapiens, CCRF-CEM, 72 h): 4.5 µM

COCCOC(=O)[C@]12CC[C@@H](C(C)C)[C@@H]1[C@H]1CC[C@@H]3[C@@]4(C)CC[C@H](O)C(C)(C)[C@@H]4CC[C@@]3(C)[C@]1(C)CC2
IC50 (G-361): 38.6 µM | IC50 (HeLa): 21.5 µM | IC50 (MCF7): 44.4 µM | IC50 (BJ): 26.5 µM | IC50 (CCRF-CEM; Homo sapiens, CCRF-CEM, 72 h): 38.4 µM

COCCOCCOC(=O)[C@]12CC[C@@H](C(C)C)[C@@H]1[C@H]1CC[C@@H]3[C@@]4(C)CC[C@H](O)C(C)(C)[C@@H]4CC[C@@]3(C)[C@]1(C)CC2
IC50 (G-361): 24 µM | IC50 (HeLa): 26.4 µM | IC50 (MCF7): 31.3 µM | IC50 (BJ): 30.5 µM | IC50 (CCRF-CEM; Homo sapiens, CCRF-CEM, 72 h): 32.3 µM

CC(C)[C@@H]1CC[C@]2(C(=O)OCCBr)CC[C@]3(C)[C@H](CC[C@@H]4[C@@]5(C)CC[C@H](O)C(C)(C)[C@@H]5CC[C@]43C)[C@@H]12
IC50 (G-361): 43.1 µM | IC50 (HeLa): 21.3 µM | IC50 (MCF7): 45.9 µM | IC50 (BJ): 36.7 µM | IC50 (CCRF-CEM; Homo sapiens, CCRF-CEM, 72 h): 35.4 µM

C=C(C)[C@@H]1CC[C@]2(C(=O)OCC(=O)OCc3ccccc3)CC[C@]3(C)[C@H](CC[C@@H]4[C@@]5(C)CC[C@H](O)C(C)(C)[C@@H]5CC[C@]43C)[C@@H]12
IC50 (G-361): 22.2 µM | IC50 (HeLa): > 50 µM | IC50 (MCF7): > 50 µM | IC50 (BJ): > 50 µM | IC50 (CCRF-CEM; Homo sapiens, CCRF-CEM, 72 h): 21.9 µM

CC(C)[C@@H]1CC[C@]2(C(=O)O[C@@H]3O[C@H](CO)[C@@H](O)[C@H](O)[C@H]3O)CC[C@]3(C)[C@H](CC[C@@H]4[C@@]5(C)CC[C@H](O)C(C)(C)[C@@H]5CC[C@]43C)[C@@H]12
IC50 (G-361): > 50 µM | IC50 (HeLa): > 50 µM | IC50 (MCF7): > 50 µM | IC50 (BJ): > 50 µM | IC50 (CCRF-CEM; Homo sapiens, CCRF-CEM, 72 h): > 50 µM

COCCOCCOC(=O)[C@]1(COC(C)=O)CC[C@]2(C)[C@H](CC[C@@H]3[C@@]4(C)CC[C@H](OC(C)=O)C(C)(C)[C@@H]4CC[C@]32C)C1=O
IC50 (G-361): > 50 µM | IC50 (HeLa): > 50 µM | IC50 (MCF7): > 50 µM | IC50 (BJ): > 50 µM | IC50 (CCRF-CEM; Homo sapiens, CCRF-CEM, 72 h): > 50 µM

CC(=O)OC[C@@]1(C(=O)OCCN2CCCCC2)CC[C@]2(C)[C@H](CC[C@@H]3[C@@]4(C)CC[C@H](OC(C)=O)C(C)(C)[C@@H]4CC[C@]32C)[C@@H]1O
IC50 (G-361): > 50 µM | IC50 (HeLa): > 50 µM | IC50 (MCF7): 27.2 µM | IC50 (BJ): > 50 µM | IC50 (CCRF-CEM; Homo sapiens, CCRF-CEM, 72 h): > 50 µM

CC(=O)O[C@H]1CC[C@]2(C)[C@H]3CC[C@@H]4C5=C(C(C)C)C(=O)C(=O)[C@]5(C(=O)OCCN5CCOCC5)CC[C@@]4(C)[C@]3(C)CC[C@H]2C1(C)C
IC50 (G-361): 2.2 µM | IC50 (HeLa): 5.5 µM | IC50 (MCF7): 18.3 µM | IC50 (BJ): 25.3 µM | IC50 (CCRF-CEM; Homo sapiens, CCRF-CEM, 72 h): 8.1 µM

CC(=O)OC[C@@]1(C(=O)OCCBr)CC[C@]2(C)[C@H](CC[C@@H]3[C@@]4(C)CC[C@H](OC(C)=O)C(C)(C)[C@@H]4CC[C@]32C)[C@@H]1O
IC50 (G-361): > 50 µM | IC50 (HeLa): > 50 µM | IC50 (MCF7): > 50 µM | IC50 (BJ): > 50 µM | IC50 (CCRF-CEM; Homo sapiens, CCRF-CEM, 72 h): > 50 µM

CC(=O)OC[C@@]1(C(=O)OCC(=O)O)CC[C@]2(C)[C@H](CC[C@@H]3[C@@]4(C)CC[C@H](OC(C)=O)C(C)(C)[C@@H]4CC[C@]32C)C1=O
IC50 (G-361): > 50 µM | IC50 (HeLa): > 50 µM | IC50 (MCF7): > 50 µM | IC50 (BJ): 7 µM | IC50 (CCRF-CEM; Homo sapiens, CCRF-CEM, 72 h): 32.4 µM
